ChEMBL document CHEMBL3576799, “Aranciamycins I and J, Antimycobacterial Anthracyclines from an Australian Marine-Derived Streptomyces sp” (J Nat Prod, 2015)
≈ marks a conversion by molar mass, not a printed value.

test system: Mycobacterium tuberculosis; experiment: Antimycobacterial activity against Mycobacterium bovis BCG; format: functional, organism-based; settings: variant bovis BCG

Q: How did the IC50 turn out when `C[C@@H]1O[C@@H](O[C@H]2C[C@](C)(O)Cc3cc4c(c(O)c32)C(=O)c2c(O)cccc2C4=O)[C@H](O)[C@H](O)[C@H]1O` was run?
A: 800 nM

Q: And the MIC?
A: 10 µM (≈ 4.86 µg/mL)

Q: How did the IC50 turn out when `CO[C@H]1[C@H](O[C@H]2C[C@](C)(O)C(=O)c3cc4c(c(O)c32)C(=O)c2c(O)cccc2C4=O)O[C@@H](C)[C@H](O)[C@H]1O` was run?
A: 700 nM

Q: What about the MIC of the same compound?
A: 10 µM (≈ 5.14 µg/mL)

Q: With `CO[C@H]1[C@H](O[C@H]2C[C@](C)(O)Cc3cc4c(c(O)c32)C(=O)c2c(O)cccc2C4=O)O[C@@H](C)[C@H](O)[C@H]1O` as the compound, how does the IC50 read?
A: 1100 nM

Q: What about the MIC of the same compound?
A: 30 µM (≈ 15 µg/mL)

Q: What does the source list for `CO[C@H]1[C@H](O[C@@H]2c3c(cc4c(c3O)C(=O)c3c(O)cccc3C4=O)C(=O)[C@@](C)(O)[C@H]2OC)O[C@@H](C)[C@H](O)[C@H]1O` [ARANCIAMYCIN]?
A: IC50: 1700 nM; MIC: 30 µM (≈ 16.3 µg/mL)
